This is an account of results in patent US5591773A, “Inhibition of cataract formation, diseases resulting from oxidative stress, and HIV replication by caffeic acid esters” (priority 1994, dated 1997).

Several values for one entry are separate records, joined by “and”; a condition that tells them apart may be missing. Identical values can stand only once.

The test system of test [1] is 8-OHdGua in epidermal DNA. The experiment in a line: TPA-induced 8-OHdGua formation in epidermal DNA of SENCAR mice. In kind it is in vivo. As to the method:
(§1) FIGS. 2A-2D. CAPE-mediated inhibition of TPA-induced oxidative processes in SENCAR mice. Mice were topically treated with 6.5 nmol CAPE 30 min prior to 6.5 nmol TPA, and this regimen was repeated 20 h later. Mice were sacrificed 1 h after the last treatment and the skin removed for determination of: (FIG. 2A) PMN infiltration (by measuring myeloperoxidase (MPO)); (FIG. 2B) H2 O2; (FIG. 2C) HMdUrd (HMdU); and (FIG. 2D) 8-OHdGua (8-OHdG), according to procedures described in the "Experimental Details" Section, infra. .quadrature., controls treated with acetone in place of CAPE and TPA; , treatment with acetone followed by TPA; .box-solid., treatment with CAPE followed by TPA. Results are expressed as mean ± SE (bars) from two experiments (2 mice/experiment) in the CAPE series. Data for acetone (ACT)- and TPA-treated mean values were collected from over 20 experiments.
(§2) C) MPO, H2 O2, and Oxidized DNA Bases. SENCAR mice were pretreated with CAPE for 30 min; then 6.5 nmol (4 μg) TPA/mouse topically applied to the dorsal skin. After 20 h, the CAPE and TPA treatment (1x) was repeated (2x treatment). One h after the second treatment, the mice were sacrificed by cervical dislocation, and 12.5-mm punches were obtained to be used separately for MPO and H2 O2 determinations. The remainder of the treated mouse skin or the combined skins from two mice were used for separation of epidermal cells. This was done by heating the skin at 55° C. for 30 s followed by rapid immersion into an ice-cold water bath (45). After the epidermis was scraped off, the presence of oxidized DNA base derivatives was measured in the epidermal DNA. All of these end points were analyzed by published procedures and are briefly described below.
(§3) The epidermis was homogenized and lysed, and the proteins and RNA were removed by proteinase K and RNase digestions, respectively (20). The DNA was separated and purified on A.S.A.P. columns (Boehringer-Mannheim Biochemicals) and precipitated with isopropyl alcohol.
(§4) The pellet was then washed with 70% ethyl alcohol, dried, and dissolved in 10 mM Tris.cndot.HCl-100 mM NaCl buffer, pH 7.0, according to the manufacturer's procedure. The DNA was sheared and enzymatically digested to nucleosides, and the hydrolysates were separated by HPLC (Beckman, Model 344) on an ODS column (Altex, 1×25 cm; 5 μm particle size) (50). The fractions that eluted after 30 ml were combined (excluding those containing normal nucleosides) and dried. The oxidized nucleosides were detected by ^3 H-postlabeling with [^3 H]acetic anhydride, followed by HPLC analysis of ^3 H-containing acetates in the presence of marker acetates (50). The results are presented as the number of oxidized nucleosides/10^4 normal bases, unless otherwise stated.
(§5) ^a Mice were treated as described in the legend to FIG. 2, except tha

For test [2], the system named is TPA-induced PMN infiltration in SENCAR mouse ears (MPO). Briefly: TPA-induced PMN infiltration (MPO) in mouse ears. It is filed as in vivo, SENCAR mice. Particulars: for MPO in mouse ears, TPA only: TPA 0.4 nmol/ear, 5 h. As to the method:
(§6) FIG. 3. Effect of CAPE on TPA-induced PMN infiltration and edema in SENCAR mouse ears. These were paired experiments, in which both ears of each mouse (8-9/group) were treated with 0.4 nmol TPA±CAPE in 20 μl acetone, and the mice were sacrificed 5 h later. (A) One ear was frozen for subsequent determination of MPO (a measure of PMN infiltration). (B) A punch (6 mm diameter) was taken from the second ear and weighed to measure edematous response (weight of sample minus weight of control). (A) Ears of each group (7-9/group) were separately minced and homogenized under different conditions as described in the "Experimental Details" Section, infra. MPO was determined in duplicate. MPO was undetectable in acetone controls and was 4.13±0.0 units/mg protein and 1.18±0.1 units/mg protein in the 2 homogenates of TPA-only-treated mice. CAPE-mediated inhibition was calculated versus the appropriate TPA-only sample, which was homogenized the same way. (B) Weights of ear punches (8-9/group, each determined separately). Acetone controls, 7.2±0.1 mg; TPA in acetone, 16.7±0.7 mg.
B) Edema Determination. Both ears of SENCAR mice (7-9 mice/group) were treated with 0.4 nmol TPA in 20 μl acetone alone or together with added 0.1 nmol, 0.3 nmol, or 1 μmol CAPE. […] The mice were sacrificed by cervical dislocation 5 h after treatment, and edema was measured on one mouse ear, while the second ear was immediately frozen and later analyzed for PMN infiltration by quantifying myeloperoxidase (MPO) (see below). Ear edema (increased weight of ear punches) was determined as previously described (24). Edema was expressed as mg/6 mm (diameter) ear punch±SE.
The assay for MPO was carried out according to the procedure of Metcalf et al. (53) with some modifications (20), and the results are expressed as units/cm^2, where a unit is defined as that degrading 1 μmol H2 O2 /min at 25° C. The presence of MPO in the mouse ears was measured in the homogenates. […] Each homogenate was analyzed in duplicate and the results are expressed as mean MPO (units/mg protein) ±SE for each of the homogenates.

For test [3], the system named is TPA-induced edema in SENCAR mouse ears. Briefly: TPA-induced ear edema. In kind it is in vivo, SENCAR mice. As to the method: as §6
B) Edema Determination. Both ears of SENCAR mice (7-9 mice/group) were treated with 0.4 nmol TPA in 20 μl acetone alone or together with added 0.1 nmol, 0.3 nmol, or […] CAPE. Control mice were treated with acetone. The mice were sacrificed by cervical dislocation 5 h after treatment, and edema was measured on one mouse ear, while the second ear was immediately frozen and later analyzed for PMN infiltration by quantifying myeloperoxidase (MPO) (see below). Ear edema (increased weight of ear punches) was determined as previously described (24). Edema was expressed as mg/6 mm (diameter) ear punch±SE.

In another test the test system is HMdUrd in epidermal DNA. Briefly: TPA-induced HMdUrd formation in epidermal DNA of SENCAR mice. In kind it is in vivo. As to the method:
as §1, §2, §3, §4, §5

The subject of test [4] is TPA-induced PMN infiltration in mouse skin (MPO). The experiment in a line: TPA-induced PMN infiltration (MPO) in dorsal skin of SENCAR mice. It is filed as in vivo. As to the method: as §1
A) Treatment of Animals and Assays. Female SENCAR (6-8 weeks old) and CD-1 mice (about 7 weeks old) were purchased from Biological Testing, National Cancer Institute (Frederick, Md.) and from Charles River Laboratory (Stone Ridge, N.Y.), respectively. The mice were acclimated for at least 1 week before use. They were subjected to a 12-h light/12-h dark cycle, housed at 20°±2° C. in a room with 10 cycles of air exchanges/h, given food and water ad libitum, and observed for any indication of ill health. Before topical application of any test agents, their backs were shaved and only those without hair growth after 48 h were used.
as §2
The assay for MPO was carried out according to the procedure of Metcalf et al. (53) with some modifications (20), and the results are expressed as units/cm^2, where a unit is defined as that degrading 1 μmol H2 O2 /min at 25° C. The presence of MPO in the mouse ears was measured in the homogenates. They were prepared by mincing the ears and homogenizing them in an ice-cold water bath with a polytron homogenizer, either twice for 20 s each or three times for 10 s each. Each homogenate was analyzed in duplicate and the results are expressed as mean MPO (units/mg protein) ±SE for each of the homogenates.
as §5

Setting [5] is: CAPE 6.5 nmol, TPA 6.5 nmol, 2x.

With `O=C(/C=C/c1ccc(O)c(O)c1)OCCc1ccccc1` [CAPE, Caffeic acid phenethyl ester], the “8-OHdGua/10^5 bases” value in test [1] (CAPE 6.5 nmol then TPA 6.5 nmol, 2x, (2 experiments), SE 0.8 on next line) is recorded as 1.4 /10^5 bases; in test [1] (CAPE 650 nmol then TPA 6.5 nmol, 2x, (2 experiments), SE 1.1 on next line), 9.4 /10^5 bases. Moreover, in test [1] (setting [5]), the “8-OHdGua suppression below acetone controls (basal levels)” value is 70%. For the same compound, in test [1] (setting [5]), the “decline of 8-OHdGua formation” value was about 170%. In test [1] (compared with untreated blanks), the “inhibition of inflammatory processes, particularly oxidation of bases in DNA (in words)” value is given as “down to the background levels represented by untreated blanks”. Also, the “suppression of TPA-induced PMN infiltration, ear” value in test [2] (CAPE 0.1 nmol/ear, TPA 0.4 nmol) is recorded as about 50%. The “orders of magnitude higher CAPE dose needed for similar inhibition of edema vs PMN infiltration” value in test [3] (1 μmol vs 0.1 nmol CAPE/ear) is on record as 4 orders of magnitude. In addition, the “inhibition of TPA-induced ear edema (in words)” value in test [3] (CAPE 1 μmol/ear, TPA 0.4 nmol/ear) is on record as “inhibits”. In addition, in test [3] (relative to 6.5 nmol CAPE, same mouse strain, (76)), the “fold higher CAPE dose required to comparably inhibit ear edema versus PMN infiltration in skin” value is over 100 fold. Moreover, the “HMdUrd/10^4 bases” value with HMdUrd in epidermal DNA (CAPE 6.5 nmol then TPA 6.5 nmol, 2x, (2 experiments), SE 0.6 on next line) is 13.1 /10^4 bases; in the test on HMdUrd in epidermal DNA (CAPE 650 nmol then TPA 6.5 nmol, 2x, (2 experiments), SE 10.5 on next line) it was 30.5 /10^4 bases. Besides, the “HMdUrd levels (in words)” value in the test with HMdUrd in epidermal DNA (setting [5]) is “below the acetone/acetone controls”. In the test on HMdUrd in epidermal DNA (setting [5]), the “decline of HMdUrd formation” value was 115%. For the same compound, the “decrease of TPA-induced PMN infiltration” value in test [4] (CAPE 6.5 nmol 30 min before each of two TPA 6.5 nmol applications, SENCAR mouse skin) was “≈ 85% and 85%”. Also, the MPO in test [4] (CAPE 6.5 nmol pretreatment then TPA 6.5 nmol, 2x, (4 experiments), SE 0.3 on next line) was 5.9 units/cm^2 skin; in test [4] (CAPE 650 nmol pretreatment then TPA 6.5 nmol, 2x, (4 experiments), SE 2.0 on next line), 10.8 units/cm^2 skin. Besides, the “TPA-mediated PMN infiltration and formation of HMdUrd and 8-OHdGua at high dose (in words)” value in test [4] (CAPE 650 nmol/treatment, 2x, 20 h apart, vs 6.5 nmol) is on record as “this reduction was not as effective as that caused by the lower (6.5 nmol) dose of CAPE”.

Turning to `CCCCCCCCCCCCCC(=O)O[C@@H]1[C@@H](C)[C@@]2(O)[C@@H](C=C(CO)C[C@]3(O)C(=O)C(C)=C[C@@H]23)[C@@H]2C(C)(C)[C@]12OC(C)=O` [TPA, 12-O-tetradecanoylphorbol-13-acetate], the “8-OHdGua/10^5 bases” value in test [1] (TPA alone, 6.5 nmol, SE 6.3 on next line) is on record as 11.8 /10^5 bases. Further, the “MPO in mouse ears, TPA only” value in test [2] (first of 2 homogenates) is recorded as 4.13±0.0 units/mg protein; in test [2] (second of 2 homogenates), 1.18±0.1 units/mg protein. Also, the “weight of ear punches” value in test [3] (TPA 0.4 nmol in acetone, 5 h, 6 mm punch) is 16.7 ± 0.7 mg. The “HMdUrd/10^4 bases” value with HMdUrd in epidermal DNA (TPA alone, 6.5 nmol, SE 6.4 on next line) was 39.4 /10^4 bases. The MPO in test [4] (TPA alone, 6.5 nmol, mean ± SE (spread on next printed line: 7.6)) was found to be 23.7 units/cm^2 skin.
